# Test results as given in patent US9387213B2, “Small molecules inhibiting oncoprotein Myc” (Health Research, Inc., priority 2012, dated 2016).
# Experiments:
# [1] = test system: Myc+ fibroblasts (HO15.19 Myc-null cells with C-MYC re-expression); assay: Stable-isotope tracing, 13C labeling and uptake/secretion of metabolites; assay type: cell-based, rat; settings: 13C-glucose, 24 hrs, Myc+ cells treated
# Experimental: Experiments were perform and data were analyzed as described in FIG. 14. Cellular measurements are mean±SD of 3 samples.
# Solubility remark = assay type: physicochemical; settings: prepared in methylcellulose
# HO-null cells = assay: Secondary filter for Myc specificity: cell growth inhibition, methylene blue staining; assay type: cell-based; settings: Rattus norvegicus, 72 h, read-out: ID50 HO-null
# Experimental: (§1) FIG. 4 illustrates the myc specificity of tested compounds. Rat1a cells expressing c-myc, L-myc or N-myc or lacking any Myc (null) were treated for 72 h with a range of hit compound concentrations. The cells were then fixed and stained with methylene blue and the percentage of cells in the presence of compound compared to DMSO only control was calculated.
# (§2) Validated hits were divided into classes when two or more compounds shared significant structural similarity. The ID50 for N-myc transactivation (the inhibitory dose resulting in 50% decrease in luciferase activity) for each hit was calculated from the dose-response N-myc responsive reporter assay. Compounds within each class were ranked by their ID50 for N-myc transactivation and the best compounds within each class were chosen for further studies. In addition, the best of the structurally unique compounds were also analyzed. A total of 46 hits were passed through a secondary filter designed to determine the specificity of the hits for Myc proteins. For this filter, we used a panel of cell lines derived from Rat1a cells (kindly provided by Michael Cole, Dartmouth University): HO-null-c-Myc deficient cells due to homologous recombination that express neither N-myc nor L-myc HO-c-Myc, HO-L-myc and HO-N-myc derived by retroviral transduction of the corresponding Myc genes into HO-null cells. Since each cell line expresses only a single Myc or no Myc family members, we could identify compounds that act through Myc family members as well as which Myc family members. […] The 18 Myc-specific compounds identified during the screening and filtering process are presented in Table 1 and represent distinct classes of molecules, including pyrazoles (e.g., N147A7, N47E10, N147G5), tetrazoles (e.g., N77A7) and 3-bromophenol (e.g., N4G6).
# melanoma cells (Mel-9) = assay: Stable-isotope tracing, 13C labeling of central metabolites; assay type: cell-based; settings: 13C-glucose, 24 h, compared to control
# Experimental: Cells were grown in 6-well plates, and the medium was replaced for the final 24 h of culture with the MEM medium described previously (Scott et al., JBC 286, 42626-34, 2011), containing 50% ^13C-labeled [U-^13C6] glucose or 50% ^13C-labeled [U-^13C5] glutamine] […] Metabolites were extracted and GC-MS analysis and calculation of ^13C labeling were performed as described (Scott et al., 2011). Metabolites were quantified on the basis of fragment ion intensities and standard curves derived from mixtures of standards run concurrently with samples, using the program Metaquant (B. Bunk et al., Bioinformatics 22, 2962-2965, 2006). On the graphs, the 13C labeling percentage is shown as average of to separate experiments (with error bars). Samples from cells treated by antimycon (“N77”), anti-MYC shRNA (“Myc”), nonspecific shRNA (“NS”) and the control treated only by DMSO are shown bars with distinct patterns.
# HO-N-myc cells = assay: Secondary filter for Myc specificity: cell growth inhibition, methylene blue staining; assay type: cell-based, rat
# Experimental: as §1, §2
# HO-c-Myc cells = assay: as above; assay type: cell-based, rat
# Experimental: as §1, §2
# SK-Mel-103 xenografts = assay: Preliminary in vivo testing CBL2.5-01-Ms-1, N77A7 in methylcellulose; design: species or system athymic nude mice; settings: after a week of ip injection, prepared in methylcellulose
# Source text: N77A7 was identified in a small molecule library screen for inhibitors of the N-myc oncoprotein, which is involved in the pathogenesis of the childhood tumor neuroblastoma. The molecule is also effective against c-myc, a family member of N-myc that is overexpressed or amplified in a wide variety of tumors, including melanoma. In vitro, the effects of N77A7 on melanoma cells (e.g., SK-Mel-103) closely reflect the effects of myc shRNA on the same cells. In order to determine whether this in vitro effect can translate into an in vivo anti-tumor effect, we tested 50 mg/kg N77A7 administered daily ip against SK-Mel-103 xenografts established in athymic nude mice. […]
# [2] = test system: SK-Mel-103 melanoma cells
# Experimental: One week following inoculation, treatment with 50 mg/kg N77A7 or Captisol vehicle control commenced. Treatment occurred daily by ip administration. Tumors were measured biweekly. Tumor volume was calculated using the formula tumor volume=L×W^2/2, where W=shortest dimension.
# Our Myc inhibitors were tested for their effect against a panel of tumor cell lines, including neuroblastoma and melanoma that represent cell lines with aberrant N-myc and c-Myc expression, respectively. This panel of cell lines included the human neuroblastoma lines BE(2)C, IMR32 and NBL-WN (N-myc amplified), NBL-S (N-myc overexpression), SH-SY5Y (significant N- and c-Myc expression) and SH-EP (low levels c-Myc only) as well as two melanoma cell lines (#3 and #10-c-Myc overexpression) and normal melanocytes).
# [3] = test system: C-MYC-activated global gene expression in SK-Mel-103 melanoma cells; assay: Global gene expression analysis, Affymetrix U133 Plus 2.0; assay type: cell-based, human; settings: 4 μM, 48 hours
# Experimental: FIG. 13 illustrates a comparison of changes in global gene expression caused by depletion of C-MYC via shRNA or by treatment with N77A7.
# SK-Mel-103 melanoma cells were infected with control- or MYC shRNA-expressing lentiviruses or treated with DMSO or 4 μM of N77A7. In 48 hours after lentiviral infection or incubation with the chemicals, cells were collected, RNA was isolated and subjected to global expression analysis using Affymetrix GeneChip® Human Genome U133 Plus 2.0 Platform. A linear model specifically designed for microarray analysis was applied to the data. Differentially expressed probe sets were detected using a nested F-test approach. An adjusted p-value of 0.005 was used to assess significance, adjusting for multiple comparisons using false discovery rate. The obtained results are schematically represented in FIG. 13. It was determined that incubation with N77A7 negatively affected expression of 820 genes by ≧2 fold (591+229, FIG. 13). […] Therefore it is logical to expect that the number of genes whose expression is suppressed both by MYC-shRNA and N77A7 should be higher than the number of genes whose expression is induced by both treatments.
# SK-Mel-103 = assay: Suppression of proliferation / senescence induction in melanoma line; assay type: cell-based; settings: Homo sapiens
# Source text: (§3) 260 analogs of N77A7 were selected from several commercially available libraries of small molecules based on the structural similarities with N77A7. The compounds were screened for the ability to permanently suppress proliferation and induce senescence in cells from melanoma lines SK-Mel-19 and SK-Mel-103. Based on the above-described screening procedure, seven small molecules were identified as having IC50 values lower than that of N77A7.
# SK-Mel-19 = assay: as above; assay type: cell-based; settings: Homo sapiens, SK-MEL19
# Source text: as §3
# HO15.19-Vector cells = assay: Cell cycle distribution by FACS; assay type: cell-based, rat; settings: 3 μM
smiles,measurement,setting,value
CCN(CC)c1ccc(/C=N/NC(=O)Cn2nnc(-c3ccccc3)n2)c(O)c1 [Compound N77A7],metabolic phenotype,[1],metabolic phenotype similar to Myc-null cells
same,solubility,Solubility remark,poorly soluble
same,IC50,HO-null cells,3640 nM
same,"labeling via glucose of serine, glycine, pyruvate, lactate, TCA-cycle metabolites",melanoma cells (Mel-9),lower
same,Myc Index N,HO-N-myc cells; ID50 in HO-null cells divided by ID50 in HO—N-myc cells,4.5
same,IC50,"HO-N-myc cells; Rattus norvegicus, cell growth inhibition, 72 h, methylene blue, read-out: ID50 HO—N-myc",770 nM
same,Myc Index C,HO-c-Myc cells; ID50 in HO-null cells divided by ID50 in HO-c-myc cells,0.8
same,IC50,"HO-c-Myc cells; Rattus norvegicus, cell growth inhibition, 72 h, methylene blue, read-out: ID50 HO-c-myc",4700 nM
same,peritonitis,SK-Mel-103 xenografts,severe peritonitis
same,observable toxicity,"[2]; mouse, in vivo",absence of any observable toxicity
same,tumor growth,"[2]; preliminary, ½ maximum tolerated dose, melanoma xenograft, FIG. 7",reduced tumor growth compared to the vehicle control
same,number of genes whose expression was negatively affected by ≧2 fold,[3],820 genes
same,number of these genes also suppressed ≧2 fold by MYC shRNA,[3],591 genes
same,share of genes induced ≧2 fold also upregulated ≧2 fold by MYC shRNA,[3],47.1%
same,share of suppressed genes also suppressed ≧2 fold by MYC shRNA,[3],72.1%
same,IC50,SK-Mel-103,3000 nM
same,IC50,SK-Mel-19,3000 nM
same,HO15.19-Vector G2,HO15.19-Vector cells; percent of cells in G2 phase,23.88%
same,HO15.19-Vector S,HO15.19-Vector cells; percent of cells in S phase,21.22%
